Measured values taken from patent US20160046618A1, “Cyclopropyl Fused Thiazin-2-Amine Compounds as Beta-Secretase Inhibitors and Methods of Use” (AMGEN INC., priority 2014, published 2016).

Columns and labels:
[1] = tested on: Aβ40 in conditioned medium of cells stably expressing Amyloid Precursor Protein (APP); assay: In vitro BACE-1 cell-based assay (Aβ40 sandwich ELISA); conditions: read-out: IC50 IP (μM) BACE1 cell
Outline: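 APP-stable cells, pre-cultured 24 h at 37° C in DMEM/10% FBS, were treated 24 h with compound in a 10-point series starting at 100 μM or 10 μM (0.1% DMSO final). Secreted Aβ40 in conditioned medium was measured by pAb40/biotin-6E10 sandwich ELISA with Europium time-resolved fluorescence; IC50 from percent inhibition versus concentration.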

Recombinant Cat D = Recombinant Cat D (Homo sapiens (Human), UniProt P07339); assay: In vitro enzymatic Cathepsin D (Cat D) FRET assay; format: biochemical; conditions: read-out: IC50 IP (μM) CatD
Recombinant Cat D, sequence (P07339 65-412): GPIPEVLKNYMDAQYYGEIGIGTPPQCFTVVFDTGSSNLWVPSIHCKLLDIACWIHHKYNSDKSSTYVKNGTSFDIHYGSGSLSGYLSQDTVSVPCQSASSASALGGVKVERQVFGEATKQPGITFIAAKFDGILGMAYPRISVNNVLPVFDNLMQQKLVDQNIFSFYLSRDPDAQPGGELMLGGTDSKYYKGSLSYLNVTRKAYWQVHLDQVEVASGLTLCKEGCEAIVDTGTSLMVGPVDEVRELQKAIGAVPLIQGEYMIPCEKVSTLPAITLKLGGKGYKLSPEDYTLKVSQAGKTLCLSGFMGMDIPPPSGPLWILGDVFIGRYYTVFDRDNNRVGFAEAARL
Outline: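 Assay pH is 3.5 (0.05 M citrate, 5 mM CHAPS, 10% DMSO final) with Cat D from CHO cells. A 20 nM quenched peptide substrate is cleaved over one hour; the reaction is ended with Tris and read by fluorescence (ex 500, em 580 nm).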

human recombinant BACE1 = human recombinant BACE1 (Homo sapiens (Human), UniProt P56817); assay: In vitro enzymatic BACE1 FRET assay; format: biochemical; conditions: read-out: IC50 IP (μM) BACE1 enzyme
human recombinant BACE1, sequence (P56817 46-501): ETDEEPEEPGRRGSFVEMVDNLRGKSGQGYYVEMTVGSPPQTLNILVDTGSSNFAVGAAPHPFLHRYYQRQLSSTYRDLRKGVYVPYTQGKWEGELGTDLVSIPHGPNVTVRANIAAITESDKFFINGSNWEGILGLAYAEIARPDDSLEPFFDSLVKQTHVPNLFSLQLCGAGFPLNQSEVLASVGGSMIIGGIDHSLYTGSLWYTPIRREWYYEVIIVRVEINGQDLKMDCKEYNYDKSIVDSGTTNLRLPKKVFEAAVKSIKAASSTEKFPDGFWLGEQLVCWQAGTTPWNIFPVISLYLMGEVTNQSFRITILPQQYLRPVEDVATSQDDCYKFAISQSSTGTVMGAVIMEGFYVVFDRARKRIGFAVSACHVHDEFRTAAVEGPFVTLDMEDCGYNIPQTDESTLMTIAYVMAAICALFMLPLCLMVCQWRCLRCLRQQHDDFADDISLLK
Outline: (§1)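 Ni-NTA-purified recombinant enzyme incubated 1 h with 50 nM FRET peptide substrate (fluorophore and quencher flanking the BACE cleavage site). Reaction stopped with Tris buffer raising pH to neutrality; cleavage-released fluorescence read at ex 488/em 590 nm.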

human recombinant BACE2 = human recombinant BACE2 (Homo sapiens (Human), UniProt Q9Y5Z0); assay: In vitro enzymatic BACE2 FRET assay; format: biochemical; conditions: read-out: IC50 IP (μM) BACE2 enzyme
human recombinant BACE2, sequence (Q9Y5Z0 63-518): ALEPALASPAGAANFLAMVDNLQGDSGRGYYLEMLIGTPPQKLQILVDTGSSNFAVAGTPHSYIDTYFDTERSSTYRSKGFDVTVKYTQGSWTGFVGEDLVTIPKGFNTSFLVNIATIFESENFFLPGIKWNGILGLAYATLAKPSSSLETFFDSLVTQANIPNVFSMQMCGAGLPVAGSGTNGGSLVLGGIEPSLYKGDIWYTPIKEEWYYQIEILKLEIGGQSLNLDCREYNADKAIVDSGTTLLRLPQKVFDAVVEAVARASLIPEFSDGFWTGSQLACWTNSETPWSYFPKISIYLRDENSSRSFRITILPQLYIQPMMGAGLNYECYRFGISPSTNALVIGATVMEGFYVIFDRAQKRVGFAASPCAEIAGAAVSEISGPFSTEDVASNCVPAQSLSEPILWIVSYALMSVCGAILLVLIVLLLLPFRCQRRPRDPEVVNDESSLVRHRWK
Outline: as §1

Compound: C#CCOc1cnc(C(=O)Nc2ccc(F)c([C@@]3(C)N=C(N)S[C@@]4([C@H](O)C(F)(F)F)C[C@H]43)c2)cn1 [Example 673, N-(3-((1S,5S,6S)-3-amino-5-methyl-1-((1R)-2,2,2-trifluoro-1-hydroxyethyl)-2-thia-4-azabicyclo[4.1.0]hept-3-en-5-yl)-4-fluorophenyl)-5-(2-propyn-1-yloxy)-2-pyrazinecarboxamide]
- IC50 [1]: 0.000398 µM
- IC50 (Recombinant Cat D): 101 µM
- IC50 (human recombinant BACE1): 0.000389 µM
- IC50 (human recombinant BACE2): 0.00602 µM

Compound: C#CCOc1cnc(C(=O)Nc2ccc(F)c([C@@]3(C)N=C(N)S[C@@]4([C@@H](O)C(F)(F)F)C[C@H]43)c2)cn1 [Example 674, N-(3-((1S,5S,6S)-3-amino-5-methyl-1-((1S)-2,2,2-trifluoro-1-hydroxyethyl)-2-thia-4-azabicyclo[4.1.0]hept-3-en-5-yl)-4-fluorophenyl)-5-(2-propyn-1-yloxy)-2-pyrazinecarboxamide]
- IC50 [1]: 0.000776 µM
- IC50 (Recombinant Cat D): 149 µM
- IC50 (human recombinant BACE1): 0.000368 µM
- IC50 (human recombinant BACE2): 0.0133 µM

Compound: COC[C@]12C[C@H]1[C@@](C)(c1cc(NC(=O)c3ncc(OCC(F)(F)F)cc3C)cc(F)c1F)N=C(N)S2 [Example 675, N-(3-((1S,5S,6S)-3-amino-1-(methoxymethyl)-5-methyl-2-thia-4-azabicyclo[4.1.0]hept-3-en-5-yl)-4,5-difluorophenyl)-3-methyl-5-(2,2,2-trifluoroethoxy)-2-pyridinecarboxamide]
- IC50 [1]: 0.0519 µM
- IC50 (Recombinant Cat D): 1010 µM
- IC50 (human recombinant BACE1): 0.0124 µM
- IC50 (human recombinant BACE2): 0.703 µM

Compound: C#CCOc1cnc2c(Nc3cnc(F)c([C@@]4(C)N=C(N)S[C@@]5([C@H](OC)C(F)(F)F)C[C@H]54)c3)nccc2n1 [Example 676, N-(5-((1S,5S,6S)-3-amino-5-methyl-1-((1R)-2,2,2-trifluoro-1-methoxyethyl)-2-thia-4-azabicyclo[4.1.0]hept-3-en-5-yl)-6-fluoro-3-pyridinyl)-2-(2-propyn-1-yloxy)pyrido[3,4-b]pyrazin-5-amine]
- IC50 [1]: 0.0033 µM
- IC50 (Recombinant Cat D): 337 µM
- IC50 (human recombinant BACE1): 0.00155 µM
- IC50 (human recombinant BACE2): 0.0157 µM

Compound: C#CCOc1cnc2c(Nc3cnc(F)c([C@@]4(C)N=C(N)S[C@@]5([C@@H](OC)C(F)(F)F)C[C@H]54)c3)nccc2n1 [Example 677, N-(5-((1S,5S,6S)-3-amino-5-methyl-1-((1S)-2,2,2-trifluoro-1-methoxyethyl)-2-thia-4-azabicyclo[4.1.0]hept-3-en-5-yl)-6-fluoro-3-pyridinyl)-2-(2-propyn-1-yloxy)pyrido[3,4-b]pyrazin-5-amine]
- IC50 [1]: 0.00305 µM
- IC50 (Recombinant Cat D): 306 µM
- IC50 (human recombinant BACE1): 0.0016 µM
- IC50 (human recombinant BACE2): 0.00948 µM

Compound: COC[C@]12C[C@H]1[C@@](C)(c1cc(NC(=O)c3ncc(OCC(F)(F)F)cc3C)ccc1F)N=C(N)S2 [Example 681, N-(3-((1S,5S,6S)-3-amino-1-(methoxymethyl)-5-methyl-2-thia-4-azabicyclo[4.1.0]hept-3-en-5-yl)-4-fluorophenyl)-3-methyl-5-(2,2,2-trifluoroethoxy)-2-pyridinecarboxamide]
- IC50 [1]: 0.0555 µM
- IC50 (Recombinant Cat D): 1450 µM
- IC50 (human recombinant BACE1): 0.0109 µM
- IC50 (human recombinant BACE2): 0.789 µM

Compound: C#CCOc1cnc(C(=O)Nc2ccc(F)c([C@@]3(C)N=C(N)S[C@@]4(COC)C[C@H]43)c2)c(C)c1 [Example 683, N-(3-((1S,5S,6S)-3-amino-1-(methoxymethyl)-5-methyl-2-thia-4-azabicyclo[4.1.0]hept-3-en-5-yl)-4-fluorophenyl)-3-methyl-5-(2-propyn-1-yloxy)-2-pyridinecarboxamide]
- IC50 [1]: 0.008 µM
- IC50 (Recombinant Cat D): 2100 µM
- IC50 (human recombinant BACE1): 0.00391 µM
- IC50 (human recombinant BACE2): 0.0267 µM

Compound: C#CCOc1cnc(C(=O)Nc2cc(F)c(F)c([C@@]3(C)N=C(N)S[C@@]4(CF)C[C@H]43)c2)c(C)c1 [Example 684, N-(3-((1S,5S,6S)-3-amino-1-(fluoromethyl)-5-methyl-2-thia-4-azabicyclo[4.1.0]hept-3-en-5-yl)-4,5-difluorophenyl)-3-methyl-5-(2-propyn-1-yloxy)-2-pyridinecarboxamide]
- IC50 [1]: 0.00684 µM
- IC50 (Recombinant Cat D): 1040 µM
- IC50 (human recombinant BACE1): 0.00146 µM
- IC50 (human recombinant BACE2): 0.0332 µM

Compound: C#CCOc1cnc(C(=O)Nc2cc(F)c(F)c([C@@]3(C)N=C(N)S[C@@]4(C(F)F)C[C@@H]34)c2)c(C)c1 [Example 685, N-(3-((1S,5S,6S)-3-amino-1-(difluoromethyl)-5-methyl-2-thia-4-azabicyclo[4.1.0]hept-3-en-5-yl)-4,5-difluorophenyl)-3-methyl-5-(2-propyn-1-yloxy)-2-pyridinecarboxamide]
- IC50 [1]: 0.0197 µM
- IC50 (Recombinant Cat D): 463 µM
- IC50 (human recombinant BACE1): 0.00112 µM
- IC50 (human recombinant BACE2): 0.018 µM

Compound: C#CCOc1cnc(C(=O)Nc2ccc(F)c([C@@]3(C)N=C(N)S[C@@]4(C(F)F)C[C@@H]34)c2)c(C)c1 [Example 686, N-(3-((1S,5S,6S)-3-amino-1-(difluoromethyl)-5-methyl-2-thia-4-azabicyclo[4.1.0]hept-3-en-5-yl)-4-fluorophenyl)-3-methyl-5-(2-propyn-1-yloxy)-2-pyridinecarboxamide]
- IC50 [1]: 0.00967 µM
- IC50 (Recombinant Cat D): 496 µM
- IC50 (human recombinant BACE1): 0.00167 µM
- IC50 (human recombinant BACE2): 0.0221 µM

Compound: COC[C@]12C[C@H]1[C@@](C)(c1cc(NC(=O)c3ncc(O[C@@H](C)c4ncco4)cc3C)cc(F)c1F)N=C(N)S2 [Example 687, N-(3-((1S,5S,6S)-3-amino-1-(methoxymethyl)-5-methyl-2-thia-4-azabicyclo[4.1.0]hept-3-en-5-yl)-4,5-difluorophenyl)-3-methyl-5-((1S)-1-(1,3-oxazol-2-yl)ethoxy)-2-pyridinecarboxamide]
- IC50 [1]: 0.569 µM
- IC50 (Recombinant Cat D): > 400 µM
- IC50 (human recombinant BACE1): 0.117 µM
- IC50 (human recombinant BACE2): 2.52 µM

Compound: COC[C@]12C[C@H]1[C@@](C)(c1cc(NC(=O)c3ncc(O[C@H](C)c4ncco4)cc3C)cc(F)c1F)N=C(N)S2 [Example 688]
- IC50 [1]: 3.89 µM
- IC50 (Recombinant Cat D): 1320 µM
- IC50 (human recombinant BACE1): 0.548 µM
- IC50 (human recombinant BACE2): 0.709 µM

Compound: C#CCOc1cnc(C(=O)Nc2ccc(F)c([C@@]3(C)N=C(N)S[C@@]4(CF)C[C@H]43)c2)c(C)c1 [Example 690, N-(3-((1S,5S,6S)-3-amino-1-(fluoromethyl)-5-methyl-2-thia-4-azabicyclo[4.1.0]hept-3-en-5-yl)-4-fluorophenyl)-3-methyl-5-(2-propyn-1-yloxy)-2-pyridinecarboxamide]
- IC50 [1]: 0.00779 µM
- IC50 (Recombinant Cat D): 675 µM
- IC50 (human recombinant BACE1): 0.00418 µM
- IC50 (human recombinant BACE2): 0.026 µM

Compound: C#CCOc1cnc(C(=O)Nc2cc(F)c(F)c([C@@]3(C)N=C(N)S[C@@]4(CF)C[C@H]43)c2)c(Cl)c1 [Example 691, N-(3-((1S,5S,6S)-3-amino-1-(fluoromethyl)-5-methyl-2-thia-4-azabicyclo[4.1.0]hept-3-en-5-yl)-4,5-difluorophenyl)-3-chloro-5-(2-propyn-1-yloxy)-2-pyridinecarboxamide]
- IC50 [1]: 0.00563 µM
- IC50 (Recombinant Cat D): 728 µM
- IC50 (human recombinant BACE1): 0.000673 µM
- IC50 (human recombinant BACE2): 0.0231 µM

Compound: C[C@]1(c2cc(NC(=O)c3ccc(OCC(F)(F)F)cn3)cc(F)c2F)N=C(N)S[C@@]2(CF)C[C@H]21 [Example 692, N-(3-((1S,5S,6S)-3-amino-1-(fluoromethyl)-5-methyl-2-thia-4-azabicyclo[4.1.0]hept-3-en-5-yl)-4,5-difluorophenyl)-5-(2,2,2-trifluoroethoxy)-2-pyridinecarboxamide]
- IC50 [1]: 0.0453 µM
- IC50 (Recombinant Cat D): > 400 µM
- IC50 (human recombinant BACE1): 0.0053 µM
- IC50 (human recombinant BACE2): 0.29 µM

Compound: C[C@]1(c2cc(NC(=O)c3ncc(OCC(F)(F)F)cc3Cl)cc(F)c2F)N=C(N)S[C@@]2(CF)C[C@H]21 [Example 693, N-(3-((1S,5S,6S)-3-amino-1-(fluoromethyl)-5-methyl-2-thia-4-azabicyclo[4.1.0]hept-3-en-5-yl)-4,5-difluorophenyl)-3-chloro-5-(2,2,2-trifluoroethoxy)-2-pyridinecarboxamide]
- IC50 [1]: 0.0489 µM
- IC50 (Recombinant Cat D): 1200 µM
- IC50 (human recombinant BACE1): 0.00294 µM
- IC50 (human recombinant BACE2): 0.246 µM

Compound: C[C@]1(c2cc(NC(=O)c3ccc(OCC(F)(F)F)cn3)cc(F)c2F)N=C(N)S[C@@]2(C(F)F)C[C@@H]12 [Example 695, N-(3-((1S,5S,6S)-3-amino-1-(difluoromethyl)-5-methyl-2-thia-4-azabicyclo[4.1.0]hept-3-en-5-yl)-4,5-difluorophenyl)-5-(2,2,2-trifluoroethoxy)-2-pyridinecarboxamide]
- IC50 [1]: 0.0883 µM
- IC50 (Recombinant Cat D): > 400 µM
- IC50 (human recombinant BACE1): 0.00272 µM
- IC50 (human recombinant BACE2): 0.263 µM

Compound: C[C@]1(c2cc(NC(=O)c3ccc(OCC(F)(F)F)cn3)ccc2F)N=C(N)S[C@@]2(C(F)F)C[C@@H]12 [Example 696, N-(3-((1S,5S,6S)-3-amino-1-(difluoromethyl)-5-methyl-2-thia-4-azabicyclo[4.1.0]hept-3-en-5-yl)-4-fluorophenyl)-5-(2,2,2-trifluoroethoxy)-2-pyridinecarboxamide]
- IC50 [1]: 0.0707 µM
- IC50 (Recombinant Cat D): 846 µM
- IC50 (human recombinant BACE1): 0.0062 µM
- IC50 (human recombinant BACE2): 0.324 µM

Compound: C[C@]1(c2cc(NC(=O)c3ccc(OCC(F)(F)F)cn3)cc(F)c2F)N=C(N)S[C@@]2(C(=O)N3CCCC3)C[C@H]21 [Example 699, N-(3-((1S,5S,6S)-3-amino-5-methyl-1-(1-pyrrolidinylcarbonyl)-2-thia-4-azabicyclo[4.1.0]hept-3-en-5-yl)-4,5-difluorophenyl)-5-(2,2,2-trifluoroethoxy)-2-pyridinecarboxamide]
- IC50 [1]: 0.0352 µM
- IC50 (Recombinant Cat D): 138 µM
- IC50 (human recombinant BACE1): 0.00106 µM
- IC50 (human recombinant BACE2): 0.0524 µM
